Values after ≈ are worked out from the molar mass of the structure shown.
What was measured:
Escherichia coli [1] = test: Antibacterial activity against Escherichia coli AG102 in presence of ciprofloxacin; format: functional
Escherichia coli [2] = test: Antibacterial activity against Escherichia coli AG102; format: functional
Listeria monocytogenes = test: Antibacterial activity against Listeria monocytogenes ATCC 19115 after 24 hrs by CLSI protocol based cup-plate agar diffusion method; format: functional
Pseudomonas aeruginosa [3] = test: Antibacterial activity against Pseudomonas aeruginosa ATCC 27853 after 24 hrs by CLSI protocol based cup-plate agar diffusion method; format: functional
Salmonella typhimurium = test: Antibacterial activity against Salmonella typhimurium ATCC 14028 after 24 hrs by CLSI protocol based cup-plate agar diffusion method; format: functional, Salmonella enterica subsp. enterica serovar Typhimurium; settings: Salmonella enterica
Staphylococcus aureus [4] = test: Antibacterial activity against Staphylococcus aureus ATCC 49444 after 24 hrs by CLSI protocol based cup-plate agar diffusion method; format: functional
Staphylococcus aureus [5] = test: Antibacterial activity against Staphylococcus aureus ATCC 6538 by CLSI protocol based microdilution method; format: functional, organism-based
Staphylococcus aureus [6] = test: Antibacterial activity against Staphylococcus aureus ATCC 25923 by CLSI protocol based microdilution method; format: functional, organism-based
Enterococcus faecalis [7] = test: Antibiofilm activity against Enterococcus faecalis; format: functional
Enterococcus faecalis [8] = test: Antibacterial activity against Enterococcus faecalis; format: functional
Escherichia coli [9] = test: Antibacterial activity against Escherichia coli MTCC 40 after 7 days by two-fold serial dilution method; format: functional; settings: MTCC 40, 168 h, time 7 day
Pseudomonas aeruginosa [10] = test: Antibacterial activity against Pseudomonas aeruginosa MTCC 2453 after 7 days by two-fold serial dilution method; format: functional; settings: MTCC 2453, 168 h, time 7 day
Staphylococcus aureus [11] = test: Antibacterial activity against Staphylococcus aureus MTCC 121 after 7 days by two-fold serial dilution method; format: functional; settings: MTCC 121, 168 h, time 7 day
Bacillus subtilis = test: Antibacterial activity against Bacillus subtilis […] after 7 days by two-fold serial dilution method; format: functional; settings: 168 h, time 7 day

Row | SMILES | MIC (Escherichia coli [1]) [µg/mL] | MIC (Escherichia coli [2]) [µg/mL] | MIC (Escherichia coli [9]) [µg/mL] | MIC (Pseudomonas aeruginosa [10]) [µg/mL] | MIC (Staphylococcus aureus [11]) [µg/mL] | MIC (Bacillus subtilis) [µg/mL] | other results
1 | Cc1ccc(CC(=O)Nc2ccc(-c3nc4ccccc4s3)cc2)cc1 | 0.004 | 512 (≈ 1430 µM) |  |  |  |  | 
2 | COc1ccc(CC(=O)Nc2ccc(-c3nc4ccccc4s3)cc2)cc1 | 0.008 | 256 (≈ 684 µM) |  |  |  |  | 
3 | CCc1ccc(C(=O)Nc2ccc(-c3nc4ccccc4s3)cc2)cc1 | 0.016 | 128 (≈ 357 µM) |  |  |  |  | 
4 | O=C(Cc1ccc(F)cc1)Nc1ccc(-c2nc3ccccc3s2)cc1 | 0.03 | 128 (≈ 353 µM) |  |  |  |  | 
5 | O=C(Nc1ccc(-c2nc3ccccc3s2)cc1)c1ccccc1 | 0.03 | 256 (≈ 775 µM) |  |  |  |  | 
6 | Cc1nc(-c2ccccc2)sc1-c1nnc(S)n1/N=C\c1ccc(Br)cc1 |  |  |  |  |  |  | MIC (Listeria monocytogenes): 1.9 µg/mL (≈ 4.16 µM); MIC (Pseudomonas aeruginosa [3]): 1.9 µg/mL (≈ 4.16 µM); MIC (Salmonella typhimurium): 62.5 µg/mL (≈ 137 µM); MIC (Staphylococcus aureus [4]): 31.2 µg/mL (≈ 68.4 µM)
7 | O=C(Cc1ccccc1)Nc1ccc(-c2nc3ccccc3s2)cc1 | 0.125 | 256 (≈ 743 µM) |  |  |  |  | 
8 | COCCn1cc(-c2nc(-c3cn(C)c4ccccc34)cs2)c2cc(OC)ccc21 |  |  |  |  |  |  | IC50 (Staphylococcus aureus [5]): 11.5 µg/mL (≈ 27.5 µM); IC50 (Staphylococcus aureus [6]): 1.2 µg/mL (≈ 2.87 µM)
9 | Cc1nc(-c2ccccc2)sc1-c1nnc(S)n1/N=C\c1ccc([N+](=O)[O-])cc1 |  |  |  |  |  |  | MIC (Listeria monocytogenes): 1.9 µg/mL (≈ 4.5 µM); MIC (Pseudomonas aeruginosa [3]): 1.9 µg/mL (≈ 4.5 µM); MIC (Salmonella typhimurium): 62.5 µg/mL (≈ 148 µM); MIC (Staphylococcus aureus [4]): 62.5 µg/mL (≈ 148 µM)
10 | c1ccc(-c2nc(-c3cccc(-c4nc(-c5cccc6ccccc56)cs4)c3)cs2)cc1 |  |  |  |  |  |  | MBIC (Enterococcus faecalis [7]): 0.004 mg/mL; MIC (Enterococcus faecalis [8]): 16 µg/mL (≈ 35.8 µM)
11 | O=C(CCCCc1ccccc1)Nc1ccc(-c2nc3ccccc3s2)cc1 | 0.004 | 512 (≈ 1320 µM) |  |  |  |  | 
12 | O=C(Nc1ccc(Cc2nc3ccccc3s2)cc1)c1ccc(F)cc1 | 0.03 | 128 (≈ 353 µM) |  |  |  |  | 
13 | COCCn1cc(-c2csc(-c3cn(C(=O)OC(C)(C)C)c4ccccc34)n2)c2ccccc21 |  |  |  |  |  |  | IC50 (Staphylococcus aureus [5]): 6.9 µg/mL (≈ 14.6 µM); IC50 (Staphylococcus aureus [6]): 1.8 µg/mL (≈ 3.8 µM)
14 | COCCn1cc(-c2csc(-c3cn(CCOC)c4ccc(Br)cc34)n2)c2ccccc21 |  |  |  |  |  |  | IC50 (Staphylococcus aureus [5]): 18.8 µg/mL (≈ 36.8 µM); IC50 (Staphylococcus aureus [6]): 2.9 µg/mL (≈ 5.68 µM)
15 | COc1cccc(/C=N\n2c(S)nnc2-c2sc(-c3ccccc3)nc2C)c1 |  |  |  |  |  |  | MIC (Listeria monocytogenes): 1.9 µg/mL (≈ 4.66 µM); MIC (Pseudomonas aeruginosa [3]): 1.9 µg/mL (≈ 4.66 µM); MIC (Salmonella typhimurium): 31.2 µg/mL (≈ 76.6 µM); MIC (Staphylococcus aureus [4]): 31.2 µg/mL (≈ 76.6 µM)
16 | Cc1nc(-c2ccccc2)sc1-c1nnc(S)n1/N=C\c1ccc(F)cc1 |  |  |  |  |  |  | MIC (Listeria monocytogenes): 1.9 µg/mL (≈ 4.8 µM); MIC (Pseudomonas aeruginosa [3]): 1.9 µg/mL (≈ 4.8 µM); MIC (Salmonella typhimurium): 62.5 µg/mL (≈ 158 µM); MIC (Staphylococcus aureus [4]): 31.2 µg/mL (≈ 78.9 µM)
17 | O=C(NN1C(=O)/C(=C/c2ccccc2)SC1c1cccc(Br)c1)c1ccc(-c2ccccc2)cc1 (stereo unspecified) |  |  | 6.25 (≈ 11.5 µM) | 3.12 (≈ 5.76 µM) | 3.12 (≈ 5.76 µM) | 3.12 (≈ 5.76 µM) | 
18 | O=C(NN1C(=O)/C(=C/c2ccccc2)SC1c1ccccc1)c1ccc(-c2ccccc2)cc1 (stereo unspecified) |  |  | 6.25 (≈ 13.5 µM) | 6.25 (≈ 13.5 µM) | 6.25 (≈ 13.5 µM) | 3.12 (≈ 6.74 µM) | 
19 | O=C(NN1C(=O)/C(=C/c2cccc([N+](=O)[O-])c2)SC1c1cccc(Br)c1)c1ccc(-c2ccccc2)cc1 (stereo unspecified) |  |  | 3.12 (≈ 5.32 µM) | 1.56 (≈ 2.66 µM) | 1.56 (≈ 2.66 µM) | 1.56 (≈ 2.66 µM) | 
20 | CCCCOc1ccc(C(=O)Nc2ccc(-c3nc4ccccc4s3)cc2)cc1 | 0.5 | 64 (≈ 159 µM) |  |  |  |  | 

Row | SMILES | MIC (Escherichia coli [1]) [µg/mL] | MIC (Escherichia coli [2]) [µg/mL] | MIC (Escherichia coli [9]) [µg/mL] | MIC (Pseudomonas aeruginosa [10]) [µg/mL] | MIC (Staphylococcus aureus [11]) [µg/mL] | MIC (Bacillus subtilis) [µg/mL] | other results
21 | CCc1ccc(C(=O)Nc2ccc(Cc3nc4ccccc4s3)cc2)cc1 | 0.06 | 64 (≈ 172 µM) |  |  |  |  | 
22 | O=C(NN1C(=O)/C(=C/c2cccc([N+](=O)[O-])c2)SC1c1cccc(F)c1)c1ccc(-c2ccccc2)cc1 (stereo unspecified) |  |  | 12.5 (≈ 23.8 µM) | 3.12 (≈ 5.94 µM) | 6.25 (≈ 11.9 µM) | 6.25 (≈ 11.9 µM) | 
23 | CC(C)(C)OC(=O)NCCn1cc(-c2nc(-c3c[nH]c4ccccc34)cs2)c2ccccc21 |  |  |  |  |  |  | IC50 (Staphylococcus aureus [5]): 5.2 µg/mL (≈ 11.3 µM); IC50 (Staphylococcus aureus [6]): 3.9 µg/mL (≈ 8.5 µM)
24 | O=C(NN1C(=O)/C(=C/c2ccc(Cl)cc2)SC1c1cccc(Br)c1)c1ccc(-c2ccccc2)cc1 (stereo unspecified) |  |  | 12.5 (≈ 21.7 µM) | 6.25 (≈ 10.9 µM) | 6.25 (≈ 10.9 µM) | 6.25 (≈ 10.9 µM) | 
25 | O=C(Nc1ccc(Cc2nc3ccccc3s2)cc1)c1ccc([N+](=O)[O-])cc1 | 0.06 | 128 (≈ 329 µM) |  |  |  |  | 
26 | O=C(NN1C(=O)/C(=C/c2cccc([N+](=O)[O-])c2)SC1c1ccccc1)c1ccc(-c2ccccc2)cc1 (stereo unspecified) |  |  | 6.25 (≈ 12.3 µM) | 3.12 (≈ 6.15 µM) | 3.12 (≈ 6.15 µM) | 1.56 (≈ 3.07 µM) | 
27 | O=C(NN1C(=O)/C(=C/c2cccc(Br)c2)SC1c1cccc(Br)c1)c1ccc(-c2ccccc2)cc1 (stereo unspecified) |  |  | 6.25 (≈ 10.1 µM) | 6.25 (≈ 10.1 µM) | 3.12 (≈ 5.03 µM) | 3.12 (≈ 5.03 µM) | 
28 | COc1ccc(/C=C2\SC(c3cccc(Br)c3)N(NC(=O)c3ccc(-c4ccccc4)cc3)C2=O)cc1 (stereo unspecified) |  |  | 1.56 (≈ 2.73 µM) | 12.5 (≈ 21.9 µM) | 3.12 (≈ 5.46 µM) | 1.56 (≈ 2.73 µM) | 
29 | COCCn1cc(-c2nc(-c3cn(C)c4ccccc34)cs2)c2cc(F)ccc21 |  |  |  |  |  |  | IC50 (Staphylococcus aureus [5]): 21 µg/mL (≈ 51.8 µM); IC50 (Staphylococcus aureus [6]): 0.2 µg/mL (≈ 0.493 µM)
30 | COCCn1cc(-c2csc(-c3cn(C)c4ccc(Br)cc34)n2)c2ccccc21 |  |  |  |  |  |  | IC50 (Staphylococcus aureus [6]): 2.5 µg/mL (≈ 5.36 µM)
31 | O=C(NN1C(=O)/C(=C/c2ccc(Cl)cc2)SC1c1ccccc1)c1ccc(-c2ccccc2)cc1 (stereo unspecified) |  |  | 3.12 (≈ 6.28 µM) | 12.5 (≈ 25.1 µM) | 3.12 (≈ 6.28 µM) | 6.25 (≈ 12.6 µM) | 
32 | O=C(NN1C(=O)/C(=C/c2ccccc2)SC1c1cccc(F)c1)c1ccc(-c2ccccc2)cc1 (stereo unspecified) |  |  | 6.25 (≈ 13 µM) | 12.5 (≈ 26 µM) | 6.25 (≈ 13 µM) | 3.12 (≈ 6.49 µM) | 
33 | O=C(Nc1ccc(Cc2nc3ccccc3s2)cc1)c1ccccc1 | 0.016 | 256 (≈ 743 µM) |  |  |  |  | 
34 | COc1ccccc1/C=N\n1c(S)nnc1-c1sc(-c2ccccc2)nc1C |  |  |  |  |  |  | MIC (Listeria monocytogenes): 1.9 µg/mL (≈ 4.66 µM); MIC (Pseudomonas aeruginosa [3]): 1.9 µg/mL (≈ 4.66 µM); MIC (Salmonella typhimurium): 62.5 µg/mL (≈ 153 µM); MIC (Staphylococcus aureus [4]): 31.2 µg/mL (≈ 76.6 µM)
35 | O=C(Nc1ccc(Cc2nc3ccccc3s2)cc1)c1ccc(Br)cc1 | 0.03 | 128 (≈ 302 µM) |  |  |  |  | 
36 | COc1cccc(/C=C2\SC(c3ccccc3)N(NC(=O)c3ccc(-c4ccccc4)cc3)C2=O)c1 (stereo unspecified) |  |  | 6.25 (≈ 12.7 µM) | 6.25 (≈ 12.7 µM) | 6.25 (≈ 12.7 µM) | 1.56 (≈ 3.17 µM) | 
37 | O=C(NN1C(=O)/C(=C/c2cccc(Br)c2)SC1c1ccccc1)c1ccc(-c2ccccc2)cc1 (stereo unspecified) |  |  | 12.5 (≈ 23.1 µM) | 6.25 (≈ 11.5 µM) | 3.12 (≈ 5.76 µM) | 6.25 (≈ 11.5 µM) | 
38 | NC(=O)c1cc(-c2csc(-c3cccc(-c4csc(-c5ccccc5)n4)c3)n2)ccc1O |  |  |  |  |  |  | MBIC (Enterococcus faecalis [7]): 0.008 mg/mL; MIC (Enterococcus faecalis [8]): 250 µg/mL (≈ 549 µM)
39 | O=C(Cc1ccc(F)cc1)Nc1ccc(Cc2nc3ccccc3s2)cc1 | 0.03 | 256 (≈ 680 µM) |  |  |  |  | 

Reference: ChEMBL document CHEMBL4725221, “Thiazoles, Their Benzofused Systems, and Thiazolidinone Derivatives: Versatile and Promising Tools to Combat Antibiotic Resistance” (J Med Chem, 2020)
